Experimental data published in ChEMBL document CHEMBL1201862, “PubChem BioAssay data set” (2004).
The source made the active and inactive calls.

Experiments:
[1] = biological target: Neuropeptide Y receptor type 1 (Homo sapiens, UniProt P25929); assay type: functional;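 note: HEK293 cells with a CNG channel challenged with NPY then isoproterenol; potency as antagonist that reverses NPY suppression of cAMP signal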
[2] = biological target: Neuropeptide Y receptor type 2 (Homo sapiens, UniProt P49146); assay type: functional, cell-based;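 note: HEK293 cells expressing the receptor and a CNG channel; stimulus was NPY near EC95 followed by isoproterenol to raise cAMP; antagonist potency measured as restoring cAMP signal that NPY suppresses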
Chain of Neuropeptide Y receptor type 2 (P49146 whole entry, the tested form may be a part): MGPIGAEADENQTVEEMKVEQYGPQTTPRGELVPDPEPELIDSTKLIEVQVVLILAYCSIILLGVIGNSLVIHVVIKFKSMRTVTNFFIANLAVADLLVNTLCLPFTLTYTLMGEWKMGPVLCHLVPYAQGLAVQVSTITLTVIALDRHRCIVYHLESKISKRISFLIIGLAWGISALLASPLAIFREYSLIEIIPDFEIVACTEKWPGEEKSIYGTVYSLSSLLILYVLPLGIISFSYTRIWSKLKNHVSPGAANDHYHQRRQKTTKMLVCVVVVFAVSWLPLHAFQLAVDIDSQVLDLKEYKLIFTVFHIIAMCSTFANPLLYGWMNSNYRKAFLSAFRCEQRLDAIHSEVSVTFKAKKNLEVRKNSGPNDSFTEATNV

[3] = biological target: T1, RNA-binding protein pos-1 (Caenorhabditis elegans, UniProt G5EF15); assay: disruptors of C. elegans POS-1 RNA interaction – biochemical, fluorescence polarization, dose response (AID 1964);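 note: purified POS-1 fused to maltose binding protein made in E. coli; potency of compounds blocking POS-1 binding to fluorescent RNA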
T1 sequence (G5EF15 whole entry): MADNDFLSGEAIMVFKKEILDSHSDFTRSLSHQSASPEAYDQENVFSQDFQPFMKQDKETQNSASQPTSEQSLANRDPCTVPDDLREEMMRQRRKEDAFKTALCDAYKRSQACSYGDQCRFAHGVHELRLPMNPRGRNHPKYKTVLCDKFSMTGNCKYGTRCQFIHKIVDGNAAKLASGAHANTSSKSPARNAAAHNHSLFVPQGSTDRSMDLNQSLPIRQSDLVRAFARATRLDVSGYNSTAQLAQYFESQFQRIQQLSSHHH

[4] = test system: Streptococcus sp. 'group A'; assay: Streptococcus pyogenes SK(-)GAS viability under kanamycin – luminescence, BacTiterGlo, confirmation, counter-screen for streptokinase expression inhibitor project, dose response (AID 1900); assay type: functional, organism-based
[5] = biological target: T2, Zinc finger protein mex-5 (Caenorhabditis elegans, UniProt Q9XUB2); assay: potency of MEX-5 RNA-binding blockers – biochemical, C. elegans, fluorescence polarization, dose response (AID 1960)
T2 sequence (Q9XUB2 whole entry): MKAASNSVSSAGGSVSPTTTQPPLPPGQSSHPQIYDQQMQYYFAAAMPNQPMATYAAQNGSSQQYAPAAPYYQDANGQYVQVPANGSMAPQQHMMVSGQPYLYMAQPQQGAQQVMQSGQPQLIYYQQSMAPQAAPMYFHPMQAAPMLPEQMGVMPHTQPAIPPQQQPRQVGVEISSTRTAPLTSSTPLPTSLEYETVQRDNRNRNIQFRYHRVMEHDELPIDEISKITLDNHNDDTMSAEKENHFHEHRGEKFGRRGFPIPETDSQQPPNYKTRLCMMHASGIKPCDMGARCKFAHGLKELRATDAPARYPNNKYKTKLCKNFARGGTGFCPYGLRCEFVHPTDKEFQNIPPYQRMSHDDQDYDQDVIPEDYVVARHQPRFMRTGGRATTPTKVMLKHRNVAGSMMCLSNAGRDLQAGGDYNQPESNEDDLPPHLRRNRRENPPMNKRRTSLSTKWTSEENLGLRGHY

Streptokinase A = biological target: T3, Streptokinase A (Streptococcus pyogenes serotype M1, UniProt P10520); assay: viability-normalized secreted streptokinase activity reduction – plasminogen activation absorbance, OD405, dose response (AID 1914); assay type: functional, Streptococcus pyogenes M1 GAS;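 note: secreted streptokinase activity via plasminogen activation per viability signal from cell pellet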
T3 sequence (P10520 whole entry): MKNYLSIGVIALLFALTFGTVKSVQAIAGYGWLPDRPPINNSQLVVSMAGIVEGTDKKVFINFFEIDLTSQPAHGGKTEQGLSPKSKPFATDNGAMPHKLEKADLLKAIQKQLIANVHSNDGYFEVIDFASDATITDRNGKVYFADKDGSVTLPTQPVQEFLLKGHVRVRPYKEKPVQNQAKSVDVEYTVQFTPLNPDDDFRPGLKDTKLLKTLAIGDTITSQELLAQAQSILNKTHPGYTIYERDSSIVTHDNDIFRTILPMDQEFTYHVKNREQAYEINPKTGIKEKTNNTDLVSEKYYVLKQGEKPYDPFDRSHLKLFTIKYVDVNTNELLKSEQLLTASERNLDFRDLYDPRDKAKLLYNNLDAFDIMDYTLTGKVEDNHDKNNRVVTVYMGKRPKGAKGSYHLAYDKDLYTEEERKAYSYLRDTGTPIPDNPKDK

[6] = CCR5-tropic HIV-1 fusion blockers – cell-based, CCR5-tropic Env, dose response (AID 2279); assay type: functional
Streptococcus = assay: GAS UMAA2166 growth inhibition – luminescence, BacTiterGlo, counter-screen for streptokinase expression inhibitor project, dose response (AID 1915); assay type: functional, organism-based;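 note: potency for reduction of bacterial viability or growth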
[7] = biological target: Heat shock protein HSP 90-alpha (Homo sapiens, UniProt P07900); assay type: functional, organism-based
Vero [8] = assay: viability of Vero cells under compound – cytotoxicity control for flavivirus capping enzyme inhibitors (AID 588742); assay type: functional; conditions: Chlorocebus sabaeus
Vero [9] = assay: cells; assay type: functional, cell-based; conditions: Chlorocebus sabaeus
Vero [10] = assay: cells; assay type: functional; conditions: Chlorocebus sabaeus
Genome polyprotein = Genome polyprotein (dengue virus type 2, UniProt P29990); assay: flavivirus cap methylation enzyme inhibition – biochemical, confirmation dose response, primary screen (AID 588689); assay type: functional
Chain of Genome polyprotein (P29990 2492-3391 limits assumed): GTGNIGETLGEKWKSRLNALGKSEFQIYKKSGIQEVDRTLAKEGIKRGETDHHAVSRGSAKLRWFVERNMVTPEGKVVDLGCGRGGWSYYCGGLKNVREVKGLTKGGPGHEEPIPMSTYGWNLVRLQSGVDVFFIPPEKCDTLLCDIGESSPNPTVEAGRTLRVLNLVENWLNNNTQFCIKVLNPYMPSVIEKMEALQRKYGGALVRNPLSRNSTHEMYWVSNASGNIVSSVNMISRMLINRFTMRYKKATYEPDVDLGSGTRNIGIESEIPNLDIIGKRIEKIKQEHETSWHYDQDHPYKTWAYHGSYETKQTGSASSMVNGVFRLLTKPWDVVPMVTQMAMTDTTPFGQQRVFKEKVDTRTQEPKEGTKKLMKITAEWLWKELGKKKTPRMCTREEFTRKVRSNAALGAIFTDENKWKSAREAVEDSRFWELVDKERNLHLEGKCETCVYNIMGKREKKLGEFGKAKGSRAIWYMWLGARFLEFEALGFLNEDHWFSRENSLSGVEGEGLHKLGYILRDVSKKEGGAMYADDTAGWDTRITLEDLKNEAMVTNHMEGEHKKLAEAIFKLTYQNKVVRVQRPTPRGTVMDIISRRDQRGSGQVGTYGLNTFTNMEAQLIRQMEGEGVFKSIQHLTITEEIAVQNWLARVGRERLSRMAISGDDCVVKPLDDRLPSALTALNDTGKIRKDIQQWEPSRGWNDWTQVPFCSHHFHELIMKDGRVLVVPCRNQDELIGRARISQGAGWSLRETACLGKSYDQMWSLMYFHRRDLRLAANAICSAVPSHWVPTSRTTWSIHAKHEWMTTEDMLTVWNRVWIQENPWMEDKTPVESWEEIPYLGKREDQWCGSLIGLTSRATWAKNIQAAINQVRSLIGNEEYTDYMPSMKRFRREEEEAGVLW

[11] = biological target: DNA (cytosine-5)-methyltransferase 1 (Homo sapiens, UniProt P26358); assay: inhibition of DNA methylation by DNMT1 – biochemical, fluorescent molecular beacon, confirmation (AID 602386); assay type: functional
Chain of DNA (cytosine-5)-methyltransferase 1 (P26358 whole entry): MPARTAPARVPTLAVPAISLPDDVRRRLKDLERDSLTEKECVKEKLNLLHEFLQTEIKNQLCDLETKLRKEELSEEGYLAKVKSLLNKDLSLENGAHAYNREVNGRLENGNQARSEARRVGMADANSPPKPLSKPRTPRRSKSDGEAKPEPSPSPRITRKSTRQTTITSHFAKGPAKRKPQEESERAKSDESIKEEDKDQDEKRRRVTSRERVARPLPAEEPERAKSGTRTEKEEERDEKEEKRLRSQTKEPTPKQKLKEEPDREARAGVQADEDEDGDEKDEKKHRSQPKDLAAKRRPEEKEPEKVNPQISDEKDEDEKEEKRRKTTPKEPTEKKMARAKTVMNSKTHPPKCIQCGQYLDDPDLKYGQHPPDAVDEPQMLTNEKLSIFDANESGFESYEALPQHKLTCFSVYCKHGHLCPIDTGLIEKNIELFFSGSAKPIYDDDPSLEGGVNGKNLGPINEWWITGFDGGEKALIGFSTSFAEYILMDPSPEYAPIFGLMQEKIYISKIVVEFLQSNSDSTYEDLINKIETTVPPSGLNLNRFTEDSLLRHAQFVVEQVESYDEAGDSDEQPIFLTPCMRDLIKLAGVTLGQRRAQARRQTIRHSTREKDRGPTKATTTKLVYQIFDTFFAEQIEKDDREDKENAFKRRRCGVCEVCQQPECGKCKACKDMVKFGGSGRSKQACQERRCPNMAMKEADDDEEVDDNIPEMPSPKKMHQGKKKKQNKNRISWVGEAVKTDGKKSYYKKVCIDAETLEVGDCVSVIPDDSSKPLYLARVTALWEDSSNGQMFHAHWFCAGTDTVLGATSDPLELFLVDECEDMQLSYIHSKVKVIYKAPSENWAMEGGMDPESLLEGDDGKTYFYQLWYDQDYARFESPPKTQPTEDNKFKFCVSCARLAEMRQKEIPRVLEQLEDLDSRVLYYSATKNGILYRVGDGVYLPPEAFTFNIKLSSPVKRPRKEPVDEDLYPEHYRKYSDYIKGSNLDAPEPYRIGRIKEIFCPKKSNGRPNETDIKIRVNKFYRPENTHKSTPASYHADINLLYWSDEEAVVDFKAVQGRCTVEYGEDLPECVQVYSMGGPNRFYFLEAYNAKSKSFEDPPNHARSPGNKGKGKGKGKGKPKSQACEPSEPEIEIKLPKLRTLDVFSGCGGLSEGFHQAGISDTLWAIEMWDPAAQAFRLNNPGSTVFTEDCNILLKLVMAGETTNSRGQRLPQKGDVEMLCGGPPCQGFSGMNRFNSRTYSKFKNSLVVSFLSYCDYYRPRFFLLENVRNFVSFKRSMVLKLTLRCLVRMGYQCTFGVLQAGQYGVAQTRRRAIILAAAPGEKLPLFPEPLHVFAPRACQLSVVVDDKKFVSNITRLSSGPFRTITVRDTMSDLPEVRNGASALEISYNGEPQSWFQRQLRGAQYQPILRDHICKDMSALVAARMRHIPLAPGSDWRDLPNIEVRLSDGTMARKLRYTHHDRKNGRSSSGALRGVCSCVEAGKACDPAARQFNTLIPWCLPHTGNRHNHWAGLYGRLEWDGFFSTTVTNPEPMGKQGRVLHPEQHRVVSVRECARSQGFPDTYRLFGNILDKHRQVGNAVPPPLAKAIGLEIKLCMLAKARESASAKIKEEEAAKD

[12] = biological target: Melanin-concentrating hormone receptor 1 (Homo sapiens, UniProt Q99705); assay: Late-stage fluorescence-based counterscreen for antagonists of the G-protein coupled receptor 7 (GPR7): cell-based dose response assay to identify antagonists of the melanin-concentrating hormone receptor 1 (MCHR1). [Related pubchem assays (depositor defined):AID1861, AID1880, AID1952, AID2148, AID2251, AID2257, AID485339]; assay type: functional;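 note: stimulated with 30 nM MCH peptide agonist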
[13] = biological target: T4, Kappa-type opioid receptor (Homo sapiens, UniProt P41145); assay: SAR analysis of small molecule agonists of the kappa opioid receptor via a luminescent beta-arrestin assay. [Related pubchem assays (depositor defined):AID1777, AID1786, AID1966, AID2133, AID2136, AID2348, AID2352, AID2357, AID2359, AID2370, AID2420, AID2478, AID2491, AID2492, AID2493, AID2497, AID2498, AID2500, AID449737, AID488822, AID488842]; assay type: functional
T4 sequence (P41145 whole entry): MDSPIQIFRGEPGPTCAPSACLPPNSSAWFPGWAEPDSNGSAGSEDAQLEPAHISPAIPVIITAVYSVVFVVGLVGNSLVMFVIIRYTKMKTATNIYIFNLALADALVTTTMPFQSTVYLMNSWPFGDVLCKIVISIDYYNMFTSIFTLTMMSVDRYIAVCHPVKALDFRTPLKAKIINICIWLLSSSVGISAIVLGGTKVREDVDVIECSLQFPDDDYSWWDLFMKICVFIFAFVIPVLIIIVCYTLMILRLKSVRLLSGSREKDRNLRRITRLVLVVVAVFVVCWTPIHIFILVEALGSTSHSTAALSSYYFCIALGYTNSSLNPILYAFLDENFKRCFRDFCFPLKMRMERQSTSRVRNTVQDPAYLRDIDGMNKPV

Mu-type opioid receptor [14] = biological target: T5, Mu-type opioid receptor (Homo sapiens, UniProt P35372); assay: mu opioid receptor activators, image-based, SAR follow-up (AID 2352); assay type: functional
T5 sequence (P35372 whole entry): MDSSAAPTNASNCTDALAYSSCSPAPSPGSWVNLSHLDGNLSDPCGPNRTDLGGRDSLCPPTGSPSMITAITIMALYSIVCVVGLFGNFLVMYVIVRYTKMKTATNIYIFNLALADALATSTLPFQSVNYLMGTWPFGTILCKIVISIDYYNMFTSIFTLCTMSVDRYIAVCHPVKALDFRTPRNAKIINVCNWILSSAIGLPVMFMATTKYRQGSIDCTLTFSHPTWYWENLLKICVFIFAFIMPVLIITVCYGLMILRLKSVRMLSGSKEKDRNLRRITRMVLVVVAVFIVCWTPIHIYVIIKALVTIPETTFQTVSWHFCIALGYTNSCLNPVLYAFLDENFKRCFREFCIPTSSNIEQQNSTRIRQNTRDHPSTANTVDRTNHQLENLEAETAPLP

[15] = biological target: T6, Delta-type opioid receptor (Homo sapiens, UniProt P41143); assay: DOR agonists, SAR follow-up, image-based (AID 2370); assay type: functional
T6 sequence (P41143 whole entry): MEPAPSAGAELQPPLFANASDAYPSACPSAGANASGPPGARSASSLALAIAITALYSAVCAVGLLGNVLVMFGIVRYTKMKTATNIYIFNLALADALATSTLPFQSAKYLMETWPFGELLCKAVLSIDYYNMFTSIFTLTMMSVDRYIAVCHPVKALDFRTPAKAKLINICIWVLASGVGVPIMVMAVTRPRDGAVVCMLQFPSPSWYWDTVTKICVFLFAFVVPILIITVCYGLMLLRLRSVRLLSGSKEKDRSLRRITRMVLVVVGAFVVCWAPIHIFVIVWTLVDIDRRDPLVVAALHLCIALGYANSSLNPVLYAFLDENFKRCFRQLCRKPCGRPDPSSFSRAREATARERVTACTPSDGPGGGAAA

[16] = biological target: T4, Kappa-type opioid receptor; assay: kappa opioid receptor blockers, image-based, SAR follow-up (AID 2348); assay type: functional
Mu-type opioid receptor [17] = biological target: T5, Mu-type opioid receptor; assay: mu opioid receptor blockers – image-based, SAR follow-up (AID 2420); assay type: functional;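 note: compounds added before stimulation of receptor with agonist DAMGO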
[18] = biological target: T4, Kappa-type opioid receptor; assay: kappa opioid receptor activation potency – imaging, image-based, SAR follow-up (AID 2359); assay type: functional
[19] = biological target: T6, Delta-type opioid receptor; assay: delta opioid receptor blockers – image-based, SAR follow-up (AID 2357); assay type: functional
Chaperone protein dnaK = Chaperone protein dnaK (Escherichia coli, UniProt C3TRK2); assay: E. coli DnaK binders, calorimetric Kd – biophysical, isothermal titration calorimetry, beta-domain, full-length DnaK, orthogonal assay for DnaK modulator project, SAR follow-up (AID 1495)
Chain of Chaperone protein dnaK (C3TRK2 whole entry): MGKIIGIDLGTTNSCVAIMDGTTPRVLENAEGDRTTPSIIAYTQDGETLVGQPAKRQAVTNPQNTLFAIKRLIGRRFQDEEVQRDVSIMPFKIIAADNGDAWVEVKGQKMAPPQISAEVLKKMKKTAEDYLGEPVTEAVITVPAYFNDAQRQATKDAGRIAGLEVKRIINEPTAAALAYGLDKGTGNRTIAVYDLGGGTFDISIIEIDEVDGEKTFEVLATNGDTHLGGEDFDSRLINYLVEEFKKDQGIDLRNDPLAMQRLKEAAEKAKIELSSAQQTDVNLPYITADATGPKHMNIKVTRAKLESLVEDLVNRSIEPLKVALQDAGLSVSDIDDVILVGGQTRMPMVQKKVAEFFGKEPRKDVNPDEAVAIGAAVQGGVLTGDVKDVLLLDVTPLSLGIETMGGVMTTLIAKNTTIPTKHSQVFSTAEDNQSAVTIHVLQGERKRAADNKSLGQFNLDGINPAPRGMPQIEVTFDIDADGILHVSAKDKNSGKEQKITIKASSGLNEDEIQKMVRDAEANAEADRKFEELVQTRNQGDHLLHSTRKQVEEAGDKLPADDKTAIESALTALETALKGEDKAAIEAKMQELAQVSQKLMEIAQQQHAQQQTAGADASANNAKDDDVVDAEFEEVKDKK

Bcl-2-like protein 10 = biological target: T7, Bcl-2-like protein 10 (Homo sapiens, UniProt Q9HD36); assay: Bcl-B/TR3 peptide binding disruption – biochemical, fluorescence polarization, FITC-TR3 peptide, selectivity assay for Bfl-1 inhibitor project, primary screen (AID 748);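 note: fluorescence polarization from a fluorescein-labelled TR3 peptide binding purified Bcl-B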
T7 sequence (Q9HD36 whole entry): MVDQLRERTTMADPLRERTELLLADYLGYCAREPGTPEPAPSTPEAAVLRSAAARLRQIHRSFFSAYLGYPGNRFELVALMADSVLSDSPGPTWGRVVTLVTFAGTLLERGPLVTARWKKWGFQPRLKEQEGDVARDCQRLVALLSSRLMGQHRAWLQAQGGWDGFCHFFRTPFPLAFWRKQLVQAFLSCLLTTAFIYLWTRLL

Estrogen receptor = biological target: T8, Estrogen receptor (Homo sapiens, UniProt P03372); assay: ERα coactivator recruitment enhancers – biochemical, TR-FRET, ERα LBD, dose response (AID 737)
T8 sequence (P03372 whole entry): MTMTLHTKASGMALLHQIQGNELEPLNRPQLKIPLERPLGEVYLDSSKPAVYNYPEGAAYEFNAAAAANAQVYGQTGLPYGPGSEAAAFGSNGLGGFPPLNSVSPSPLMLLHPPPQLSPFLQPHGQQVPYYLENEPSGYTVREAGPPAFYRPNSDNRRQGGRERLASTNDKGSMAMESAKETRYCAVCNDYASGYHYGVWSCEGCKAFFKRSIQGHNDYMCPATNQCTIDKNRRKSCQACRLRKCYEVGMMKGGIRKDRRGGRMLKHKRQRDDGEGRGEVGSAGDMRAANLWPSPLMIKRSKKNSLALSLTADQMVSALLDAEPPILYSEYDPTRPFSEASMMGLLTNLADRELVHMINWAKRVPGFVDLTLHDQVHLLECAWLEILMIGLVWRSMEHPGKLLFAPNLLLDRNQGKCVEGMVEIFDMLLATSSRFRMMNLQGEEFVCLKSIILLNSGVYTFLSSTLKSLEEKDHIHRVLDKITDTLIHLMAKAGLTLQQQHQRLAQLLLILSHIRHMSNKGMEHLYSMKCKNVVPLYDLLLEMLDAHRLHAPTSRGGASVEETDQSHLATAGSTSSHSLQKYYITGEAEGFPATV

[20] = biological target: Eukaryotic translation initiation factor 4H (Homo sapiens, UniProt Q15056); assay: eIF4H binding inhibition – biochemical, uHTS, fluorescence polarization, translation initiation inhibitor project, primary screen (AID 2012)
[21] = biological target: Polyadenylate-binding protein 1 (Homo sapiens, UniProt P11940); assay: blockers of PABP interaction with poly(A) – biochemical, fluorescence polarization, […] (AID 2014)

O=C(CN(Cc1ccc2c(c1)OCO2)C(=O)CSc1nc2ccccc2o1)NC1CCCCC1
IC50 [1]: 8.58 µM (active)
IC50 [2]: 13.7 µM (not active)

COc1ccc(C(=O)/C=C/c2ccc(-c3ccccc3)cc2)cc1CSCC(=O)O
EC50 [3]: > 300 µM (not active)
EC50 [4]: 4.28 µM (active)
EC50 [5]: > 300 µM (not active)
EC50 (Streptokinase A): 8.81 µM (active)
IC50 [6]: 9.89 µM (active)
EC50 (Streptococcus): > 150 µM (not active)
AC50 [7]: 9.3 µM (active)
CC50 (Vero [8]): 29.5 µM (active)
IC50 (Vero [9]): > 25 µM (active)
CC50 (Vero [10]): > 25 µM (active)
IC50 (Genome polyprotein): 37.7 µM (active)
IC50 [11]: 9.8 µM (active)

CCc1ccc(Oc2c(Cl)cnn(-c3ccc(C)cc3)c2=O)cc1
IC50 [12]: 5 µM (active)

Cc1cccc(-n2ccnc2CN2CCC(CO)(CC3CCCCO3)CC2)c1 (configuration not stated)
EC50 [13]: > 10 µM (inactive)
EC50 (Mu-type opioid receptor [14]): > 32 µM (inactive)
EC50 [15]: > 32 µM (inactive)
IC50 [16]: > 32 µM (inactive)
IC50 (Mu-type opioid receptor [17]): > 32 µM (inactive)
EC50 [18]: 5.82 µM (active)
IC50 [19]: > 32 µM (inactive)

O=C(NCc1ccccc1O)c1cccs1
Kd (Chaperone protein dnaK): 2.3 µM (active)

Cc1ccc(-c2nnc(S)n2/N=C/C=C/c2ccccc2[N+](=O)[O-])cc1
IC50 (Bcl-2-like protein 10): > 100 µM (inactive)
EC50 (Estrogen receptor): 6.52 µM (active)

O=C(O)c1ccc(N/N=C/c2cc3c(cc2[N+](=O)[O-])OCO3)cc1
IC50 [20]: 21.8 µM (active)
IC50 [21]: 48.8 µM (active)
